# Source: US10858356B2, “Pyrazolopyridine derivative having GLP-1 receptor agonist effect” (Chugai Seiyaku Kabushiki Kaisha, priority 2016, dated 2020)
# Biological target: human GLP1R (Homo sapiens (Human), UniProt P43220)
# Experiment: In vitro cAMP signal activation in human GLP1R stably-expressing cell line (hGLP1R-HEK293)
# Type: cell-based
# Settings: cAMP concentration in hGLP1R-HEK293; 100% = 1 nM human GLP-1 (7-37)
# human GLP1R, sequence (P43220 24-463): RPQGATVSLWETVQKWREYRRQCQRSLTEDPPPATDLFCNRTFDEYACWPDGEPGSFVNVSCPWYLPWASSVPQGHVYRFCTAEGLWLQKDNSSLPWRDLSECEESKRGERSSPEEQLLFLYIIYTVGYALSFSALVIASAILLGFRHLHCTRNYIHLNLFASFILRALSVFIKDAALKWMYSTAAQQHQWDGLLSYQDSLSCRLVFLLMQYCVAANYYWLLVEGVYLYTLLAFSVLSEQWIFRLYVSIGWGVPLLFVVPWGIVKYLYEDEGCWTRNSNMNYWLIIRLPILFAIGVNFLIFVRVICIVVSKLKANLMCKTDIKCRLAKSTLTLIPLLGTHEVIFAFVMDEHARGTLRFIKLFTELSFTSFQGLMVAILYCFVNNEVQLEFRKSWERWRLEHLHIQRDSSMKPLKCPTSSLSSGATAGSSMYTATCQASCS
row,EC50,SMILES
1,1.6 nM,"COCCn1ncc2c(F)c(-n3ccn(-c4c5c(nn4-c4cc(C)c(Cl)c(C)c4)CCN(C(=O)c4cc6cc(C7CCOCC7)ccc6n4[C@@]4(c6noc(=O)[nH]6)C[C@@H]4C)[C@H]5C)c3=O)ccc21 [Example 45, 3-[(1S,2S)-1-[2-[(4S)-2-(4-chloro-3,5-dimethylphenyl)-3-[3-[4-fluoro-1-(2-methoxyethyl)indazol-5-yl]-2-oxoimidazol-1-yl]-4-methyl-6,7-dihydro-4H-pyrazolo[4,3-c]pyridine-5-carbonyl]-5-(oxan-4-yl)indol-1-yl]-2-methylcyclopropyl]-4H-1,2,4-oxadiazol-5-one]"
2,3.3 nM,"Cc1cc(-n2nc3c(c2-n2ccn(-c4ccc5c(cnn5CC(F)(F)F)c4F)c2=O)[C@H](C)N(C(=O)c2cc4cc(C5CCOCC5)ccc4n2[C@@]2(c4noc(=O)[nH]4)C[C@@H]2C)CC3)ccc1F [Example 46, 3-[(1S,2S)-1-[2-[(4S)-2-(4-fluoro-3-methylphenyl)-3-[3-[4-fluoro-1-(2,2,2-trifluoroethyl)indazol-5-yl]-2-oxoimidazol-1-yl]-4-methyl-6,7-dihydro-4H-pyrazolo[4,3-c]pyridine-5-carbonyl]-5-(oxan-4-yl)indol-1-yl]-2-methylcyclopropyl]-4H-1,2,4-oxadiazol-5-one]"
3,2 nM,"COCCn1ncc2c(F)c(-n3ccn(-c4c5c(nn4-c4ccc(F)c(C)c4)CCN(C(=O)c4cc6cc(C7CCOCC7)ccc6n4[C@@]4(c6noc(=O)[nH]6)C[C@@H]4C)[C@H]5C)c3=O)ccc21 [Example 47, 3-[(1S,2S)-1-[2-[(4S)-3-[3-[4-fluoro-1-(2-methoxyethyl)indazol-5-yl]-2-oxoimidazol-1-yl]-2-(4-fluoro-3-methylphenyl)-4-methyl-6,7-dihydro-4H-pyrazolo[4,3-c]pyridine-5-carbonyl]-5-(oxan-4-yl)indol-1-yl]-2-methylcyclopropyl]-4H-1,2,4-oxadiazol-5-one]"
4,3 nM,"COCCn1ncc2c(F)c(-n3ccn(-c4c5c(nn4-c4ccc(F)c(C)c4)CCN(C(=O)c4cc6cc([C@H]7CCOC(C)(C)C7)ccc6n4[C@@]4(c6noc(=O)[nH]6)C[C@@H]4C)[C@H]5C)c3=O)ccc21 [Example 48, 3-[(1S,2S)-1-[5-[(4S)-2,2-dimethyloxan-4-yl]-2-[(4S)-3-[3-[4-fluoro-1-(2-methoxyethyl)indazol-5-yl]-2-oxoimidazol-1-yl]-2-(4-fluoro-3-methylphenyl)-4-methyl-6,7-dihydro-4H-pyrazolo[4,3-c]pyridine-5-carbonyl]indol-1-yl]-2-methylcyclopropyl]-4H-1,2,4-oxadiazol-5-one]"
5,3.8 nM,"Cc1cc(-n2nc3c(c2-n2ccn(-c4ccc5c(cnn5C)c4Cl)c2=O)[C@H](C)N(C(=O)c2cc4cc([C@H]5CCOC(C)(C)C5)ccc4n2[C@@]2(c4noc(=O)[nH]4)C[C@@H]2C)CC3)ccc1F [Example 49, 3-[(1S,2S)-1-[2-[(4S)-3-[3-(4-chloro-1-methylindazol-5-yl)-2-oxoimidazol-1-yl]-2-(4-fluoro-3-methylphenyl)-4-methyl-6,7-dihydro-4H-pyrazolo[4,3-c]pyridine-5-carbonyl]-5-[(4S)-2,2-dimethyloxan-4-yl]indol-1-yl]-2-methylcyclopropyl]-4H-1,2,4-oxadiazol-5-one]"
6,2.9 nM,"Cc1cc(-n2nc3c(c2-n2ccn(-c4ccc5c(cnn5C)c4)c2=O)[C@H](C)N(C(=O)c2cc4cc([C@H]5CCOC(C)(C)C5)ccc4n2[C@@]2(c4noc(=O)[nH]4)C[C@@H]2C)CC3)ccc1F [Example 50, 3-[(1S,2S)-1-[5-[(4S)-2,2-dimethyloxan-4-yl]-2-[(4S)-2-(4-fluoro-3-methylphenyl)-4-methyl-3-[3-(1-methylindazol-5-yl)-2-oxoimidazol-1-yl]-6,7-dihydro-4H-pyrazolo[4,3-c]pyridine-5-carbonyl]indol-1-yl]-2-methylcyclopropyl]-4H-1,2,4-oxadiazol-5-one]"
7,6.7 nM,Cc1cc(-n2nc3c(c2-n2ccn(-c4ccc5c(cnn5C)c4)c2=O)CN(C(=O)c2cc4cc(N5CCOC6(CC6)C5)ccc4n2[C@@]2(c4noc(=O)[nH]4)C[C@@H]2C)CC3)cc(C)c1F [compound 52]
8,2.9 nM,CC[C@H]1CN(c2ccc3c(c2)cc(C(=O)N2CCc4nn(-c5cc(C)c(F)c(C)c5)c(-n5ccn(-c6ccc7c(cnn7C)c6)c5=O)c4C2)n3[C@@]2(c3noc(=O)[nH]3)C[C@@H]2C)CCO1 [compound 53]
9,3.9 nM,"Cc1cc(-n2nc3c(c2-n2ccn(-c4ccc5c(cnn5C)c4)c2=O)CN(C(=O)c2cc4cc(C5CCOCC5)ccc4n2[C@@]2(c4noc(=O)[nH]4)C[C@@H]2C)CC3)cc(C)c1F [compound 54, 3-[(1S,2S)-1-[2-[2-(4-fluoro-3,5-dimethylphenyl)-3-[3-(1-methylindazol-5-yl)-2-oxoimidazol-1-yl]-6,7-dihydro-4H-pyrazolo[4,3-c]pyridine-5-carbonyl]-5-(oxan-4-yl)indol-1-yl]-2-methylcyclopropyl]-4H-1,2,4-oxadiazol-5-one]"
10,3.7 nM,"Cc1cc(-n2nc3c(c2-n2ccn(-c4ccc5c(cnn5C)c4)c2=O)CN(C(=O)c2cc4cc(C5CCOCC5)ccc4n2[C@@]2(c4noc(=O)[nH]4)C[C@@H]2C)CC3)cc(C)c1Cl [compound 55, 3-[(1S,2S)-1-[2-[2-(4-chloro-3,5-dimethylphenyl)-3-[3-(1-methylindazol-5-yl)-2-oxoimidazol-1-yl]-6,7-dihydro-4H-pyrazolo[4,3-c]pyridine-5-carbonyl]-5-(oxan-4-yl)indol-1-yl]-2-methylcyclopropyl]-4H-1,2,4-oxadiazol-5-one]"
11,3.4 nM,"COCCn1ncc2cc(-n3ccn(-c4c5c(nn4-c4cc(C)c(F)c(C)c4)CCN(C(=O)c4cc6cc(C7CCOCC7)cnc6n4[C@@]4(c6noc(=O)[nH]6)C[C@@H]4C)C5)c3=O)ccc21 [compound 56, 3-[(1S,2S)-1-[2-[2-(4-fluoro-3,5-dimethylphenyl)-3-[3-[1-(2-methoxyethyl)indazol-5-yl]-2-oxoimidazol-1-yl]-6,7-dihydro-4H-pyrazolo[4,3-c]pyridine-5-carbonyl]-5-(oxan-4-yl)pyrrolo[2,3-b]pyridin-1-yl]-2-methylcyclopropyl]-4H-1,2,4-oxadiazol-5-one]"
12,8.1 nM,"COCCN(C(C)=O)C12C3C4C1C1C2C3C41n1ccn(-c2c3c(nn2-c2cc(C)c(F)c(C)c2)CCN(C(=O)c2cc4cc(C5CCOCC5)ccc4n2[C@@]2(c4noc(=O)[nH]4)C[C@@H]2C)[C@H]3C)c1=O (stereo partly drawn) [compound 57, N-[4-[3-[(4S)-2-(4-fluoro-3,5-dimethylphenyl)-4-methyl-5-[1-[(1S,2S)-2-methyl-1-(5-oxo-4H-1,2,4-oxadiazol-3-yl)cyclopropyl]-5-(oxan-4-yl)indole-2-carbonyl]-6,7-dihydro-4H-pyrazolo[4,3-c]pyridin-3-yl]-2-oxoimidazol-1-yl]cuban-1-yl]-N-(2-methoxyethyl)acetamide]"
13,7.6 nM,"COCCn1ncc2cc(-n3ccn(-c4c5c(nn4-c4ccc(F)c(C)c4)CCN(C(=O)c4cc6cc(N7CCOC(C)(C)C7)ccc6n4[C@@]4(c6noc(=O)[nH]6)C[C@@H]4C)C5)c3=O)ccc21 [compound 58, 3-[(1S,2S)-1-[5-(2,2-dimethylmorpholin-4-yl)-2-[2-(4-fluoro-3-methylphenyl)-3-[3-[1-(2-methoxyethyl)indazol-5-yl]-2-oxoimidazol-1-yl]-6,7-dihydro-4H-pyrazolo[4,3-c]pyridine-5-carbonyl]indol-1-yl]-2-methylcyclopropyl]-4H-1,2,4-oxadiazol-5-one]"
14,1.5 nM,"Cc1cc(-n2nc3c(c2-n2ccn(-c4ccc5c(cnn5C)c4)c2=O)CN(C(=O)c2cc4cc([C@H]5CCOC(C)(C)C5)ccc4n2[C@@]2(c4noc(=O)[nH]4)C[C@@H]2C)CC3)cc(C)c1F [compound 59, 3-[(1S,2S)-1-[5-[(4S)-2,2-dimethyloxan-4-yl]-2-[2-(4-fluoro-3,5-dimethylphenyl)-3-[3-(1-methylindazol-5-yl)-2-oxoimidazol-1-yl]-6,7-dihydro-4H-pyrazolo[4,3-c]pyridine-5-carbonyl]indol-1-yl]-2-methylcyclopropyl]-4H-1,2,4-oxadiazol-5-one]"
15,4.9 nM,Cc1cc(C)cc(-n2nc3c(c2-n2ccn(-c4ccc5c(cnn5C)c4)c2=O)CN(C(=O)c2cc4cc(C5CCOC(C)(C)C5)ccc4n2[C@@]2(c4noc(=O)[nH]4)C[C@@H]2C)CC3)c1 (stereo partly drawn) [compound 60]
16,1.6 nM,"Cc1cc(-n2nc3c(c2-n2ccn(-c4ccc5c(cnn5C)c4)c2=O)[C@H](C)N(C(=O)c2cc4cc([C@H]5CCO[C@@H](C)C5)ccc4n2[C@@]2(c4noc(=O)[nH]4)C[C@@H]2C)CC3)cc(C)c1F [compound 61, 3-[(1S,2S)-1-[2-[(4S)-2-(4-fluoro-3,5-dimethylphenyl)-4-methyl-3-[3-(1-methylindazol-5-yl)-2-oxoimidazol-1-yl]-6,7-dihydro-4H-pyrazolo[4,3-c]pyridine-5-carbonyl]-5-[(2S,4S)-2-methyloxan-4 yl]indol-1-yl]-2-methylcyclopropyl]-4H-1,2,4-oxadiazol-5-one]"
17,1.1 nM,"COCCn1ncc2cc(-n3ccn(-c4c5c(nn4-c4cc(C)c(F)c(C)c4)CCN(C(=O)c4cc6cc([C@H]7CCO[C@@H](C)C7)ccc6n4[C@@]4(c6noc(=O)[nH]6)C[C@@H]4C)[C@H]5C)c3=O)ccc21 [compound 62, 3-[(1S,2S)-1-[2-[(4S)-2-(4-fluoro-3,5-dimethylphenyl)-3-[3-[1-(2-methoxyethyl)indazol-5-yl]-2-oxoimidazol-1-yl]-4-methyl-6,7-dihydro-4H-pyrazolo[4,3-c]pyridine-5-carbonyl]-5-[(2S,4S)-2-methyloxan-4-yl]indol-1-yl]-2-methylcyclopropyl]-4H-1,2,4-oxadiazol-5-one]"
18,1.1 nM,"COCCn1ncc2cc(-n3ccn(-c4c5c(nn4-c4cc(C)c(F)c(C)c4)CCN(C(=O)c4cc6cc(C7CCOCC7)cc(F)c6n4[C@@]4(c6noc(=O)[nH]6)C[C@@H]4C)[C@H]5C)c3=O)ccc21 [compound 63, 3-[(1S,2S)-1-[7-fluoro-2-[(4S)-2-(4-fluoro-3,5-dimethylphenyl)-3-[3-[1-(2-methoxyethyl)indazol-5-yl]-2-oxoimidazol-1-yl]-4-methyl-6,7-dihydro-4H-pyrazolo[4,3-c]pyridine-5-carbonyl]-5-(oxan-4-yl)indol-1-yl]-2-methylcyclopropyl]-4H-1,2,4-oxadiazol-5-one]"
